Results taken from ChEMBL document CHEMBL2046391, “Calyxamides A and B, cytotoxic cyclic peptides from the marine sponge Discodermia calyx” (J Nat Prod, 2012).
Activity calls are given as the source filed them.

What was measured:
Bacillus cereus = experiment: Antimicrobial activity against Bacillus cereus at 100 ug/disc measured every 24 hrs for 4 days by disc diffusion method; format: functional, organism-based
Botrytis cinerea = experiment: Antimicrobial activity against Botrytis cinerea at 100 ug/disc measured every 24 hrs for 4 days by disc diffusion method; format: functional, organism-based
Beauveria bassiana = experiment: Antimicrobial activity against Beauveria bassiana ARSEF 8354 at 100 ug/disc measured every 24 hrs for 4 days by disc diffusion method; format: functional
Lactuca sativa = experiment: Phytotoxicity against lettuce seedling at 50 ug/mL by seedling elongation assay; format: functional, organism-based
Escherichia coli = experiment: Antimicrobial activity against Escherichia coli at 100 ug/disc measured every 24 hrs for 4 days by disc diffusion method; format: functional, organism-based
Colletotrichum acutatum = experiment: Antimicrobial activity against Colletotrichum acutatum at 100 ug/disc measured every 24 hrs for 4 days by disc diffusion method; format: functional, organism-based
Saccharomyces cerevisiae = experiment: Antimicrobial activity against Saccharomyces cerevisiae at 100 ug/disc measured every 24 hrs for 4 days by disc diffusion method; format: functional, organism-based
Aedes aegypti = experiment: Insecticidal activity against Aedes aegypti larvae at 100 ug/mL after 24 hrs; format: functional, organism-based
Drosophila melanogaster = experiment: Insecticidal activity against Drosophila melanogaster at 100 ug; format: functional, organism-based
MCF7 = experiment: Antiproliferative activity against human MCF7 cells at 100 uM by XTT assay; format: functional, cell-based
Caco-2 = experiment: Antiproliferative activity against human Caco2 cells at 100 uM by XTT assay; format: functional, cell-based

Measured: Activity

CC[C@H](C)C[C@H](C)[C@H]1OC(=O)[C@H](Cc2ccccc2)NC(=O)/C(C)=C/[C@H](C)[C@@H](O)/C(C)=C/[C@H](C)[C@H](OC(C)=O)/C(C)=C/[C@@H]1C
not listed: MCF7 | Caco-2
inactive: all other assays above

CC[C@H](C)C[C@H](C)[C@H]1OC(=O)[C@H](Cc2ccccc2)NC(=O)/C(C)=C/[C@H](C)[C@@H](O)/C(C)=C/[C@H](C)[C@H](O)/C(C)=C\[C@@H]1C
inactive: MCF7 | Caco-2
